Assay results published in ChEMBL document CHEMBL1139180, “Design, synthesis, and bioactivity of novel inhibitors of E. coli aspartate transcarbamoylase” (Bioorg Med Chem Lett, 2007).

assay: Inhibition of Escherichia coli ATCase

Q: Which IC50 does the source give for `O=C(CP(=O)(O)O)NC(CCO)C(=O)O` (stereo not given) here?
A: Its IC50 is 3.9 µM.

Q: For `NC(=O)C(CC(=O)O)NC(=O)CP(=O)(O)O` (stereo not given), which IC50 is on record?
A: Its IC50 is 0.087 µM.

Q: Which IC50 does the source give for `O=C(CP(=O)(O)O)NC(CO)C(=O)O` (stereo not given) here?
A: The IC50 was 30 µM.

Q: With `O=C(CP(=O)(O)O)NC(C(=O)O)C(=O)O` as the molecule, how does the IC50 read?
A: Its IC50 is 43.5 µM.

Q: With `CC(O)C(NC(=O)CP(=O)(O)O)C(=O)O` (stereo not given) as the molecule, how does the IC50 read?
A: Its IC50 is 42 µM.

Q: For `NC(=O)CC(NC(=O)CP(=O)(O)O)C(=O)O` (stereo not given), which IC50 is on record?
A: The IC50 was 0.225 µM.

Q: With `O=C(O)C[C@H](NC(=O)CP(=O)(O)O)C(=O)O` [PALA] as the molecule, how does the IC50 read?
A: The IC50 was 0.055 µM.

Q: With `O=C(CP(=O)(O)O)NC(Cc1ccc(O)cc1)C(=O)O` (stereo not given) as the molecule, how does the IC50 read?
A: The IC50 was 63 µM.

Q: With `O=C(CP(=O)(O)O)NC(CO)CCO` (stereo not given) as the molecule, how does the IC50 read?
A: Its IC50 is 2900 µM.

Q: With `O=C(CP(=O)(O)O)NC(CO)CO` as the molecule, how does the IC50 read?
A: Its IC50 is 12500 µM.
